This is an account of results in patent publication US12509439B2, “Anti-malarial agents” (UNIVERSITY OF KENTUCKY RESEARCH FOUNDATION, priority 2020, dated 2025).

In data set [1] the test system is Plasmodium falciparum (3D7). In words: In-vitro potency against P. falciparum (3D7 strain), SYBR Green growth inhibition. It counts as cell-based. To be noted: P. falciparum 3D7, asexual intraerythrocytic stage, SYBR Green fluorescence. As to the method: Cultures of the widely-used malaria reference strain of chloroquine-sensitive Plasmodium falciparum (3D7) were maintained in a 1.25% suspension of human red blood cells cultured in RPMI 1640 medium (pH 7.3) supplemented with 0.5% Albumax II (Gibco Life Technologies, San Diego, CA), 12 mM sodium bicarbonate, 0.2 mM hypoxanthine, and 20 mg/L gentamicin at 37° C., in an atmosphere of 1% O2, 3% CO2 with a balance of nitrogen (Human malaria parasites in continuous culture. Trager W et al., 1976, Science, 193: 673-675). Growth inhibition was quantified using a fluorescence assay utilising the binding of SYBR Green (Novel, rapid, and inexpensive cell-based quantification of antimalarial drug efficacy. Bennett T. N. et al., 2004, Antimicrob. Agents Chemother., 48: 1807-1810) to double stranded DNA, which emits a fluorescent signal at 528 nm after excitation at 485 nm. Mefloquine was used as a drug control to monitor the quality of the assay (Z′=0.6 to 0.8, where Z′ is a measure of the discrimination between the positive and negative controls on a screen plate). Hits were confirmed by full-potency curves with dose-response curves determined from a minimum of 3 independent experiments. Compound bioactivity was expressed as EC50, the effective concentration of compound causing 50% parasite death. All data were processed using IDBS ActivityBase. Raw data was converted into percent inhibition through linear regression by setting the high inhibition control as 100% and the no inhibition control as 0%. Quality control criteria for passing plates were as follows: z′>0.5, S:B>3, % CV(no inhibition control)<15. The formula used to calculate z′ is
Curve fitting was carried out using the following 4 parametric equation:
where A=% inhibition at bottom, B=% inhibition at top, C=EC50, D=slope, x=inhibitor concentration and y=% inhibition. If curve definition was poor, B was fixed to 100.

Data set [2] can be described thus: Microsomal intrinsic clearance, human liver microsomes. Type of data set: in vitro ADME. To be noted: human liver microsomes (pooled), pH 7.4, 45 min, NADPH. The procedure: (§1) The compounds of the invention (1 μM) were incubated in suspension with human (rat or mouse) liver microsomes pooled from multiple donors (>10) and samples taken at 5 time points over the course of a 45 min experiment and analysed by LC MS/MS. Microsomes (final protein concentration 0.5 mg/mL), 0.1 M phosphate buffer pH 7.4 and test compound (final substrate concentration 1 μM; final DMSO concentration 0.25%) were pre-incubated at 37° C. prior to the addition of NADPH (final concentration 1 mM) to initiate the reaction. A minus cofactor control incubation was included for each compound tested where 0.1 M phosphate buffer pH 7.4 is added instead of NADPH (minus NADPH). All incubations were performed in duplicate for each test compound and the results averaged. Each compound is incubated for 0, 5, 15, 30 and 45 min. The control (minus NADPH) was incubated for 45 min only. The reactions were stopped by transferring incubate into acetonitrile at the appropriate time points, in a 1:3 ratio.
(§2) The termination plates were centrifuged at 3,000 rpm for 20 min at 4° C. to precipitate the protein. Following protein precipitation, the sample supernatants were combined in cassettes of up to 4 compounds, internal standard added and samples analysed by LC-MS/MS. From a plot of ln peak area ratio (compound peak area/internal standard peak area) against time, the gradient of the line is determined. Subsequently, half-life (t½) and intrinsic clearance (CLint) are calculated using the equations below: Elimination rate constant (k)=(−gradient) Half-life (t1/2)(min)=0.693/k Intrinsic clearance (i.e. CLint)(μL/min/mg protein)=V×0.693/t1/2 where V=Incubation volume (μL)/Microsomal protein (mg)
(§3) Verapamil and dextromethorphan were included in the assay as controls and if the values for these compounds were not within the specified limits the results were rejected and the experiment repeated.
In general terms: Microsomes from liver hold many membrane-bound enzymes, among them those of drug oxidation.

Data set [3] can be described thus: Microsomal intrinsic clearance, mouse liver microsomes. Type of data set: in vitro ADME. Conditions: mouse liver microsomes (pooled), pH 7.4, 45 min, NADPH. As to the method: as §1, §2, §3
Data set [4] can be described thus: Microsomal intrinsic clearance, rat liver microsomes. To be noted: rat liver microsomes (pooled), pH 7.4, 45 min, NADPH. Type of data set: in vitro ADME. As to the method: as §1, §2, §3
Data set [5] can be described thus: Hepatocyte intrinsic clearance, cryopreserved human hepatocytes. It counts as in vitro ADME. Conditions: cryopreserved human hepatocytes in suspension (pooled), 60 min. The procedure:
The compounds of the invention (3 μM) were incubated in suspension with cryopreserved human (rat or mouse) hepatocytes pooled from multiple donors (>10) and samples taken at 6 time points over the course of a 60 min experiment and analysed by LC MS/MS. Williams E media supplemented with 2 mM L-glutamine and 25 mM HEPES and test compound (final substrate concentration 3 μM; final DMSO concentration 0.25%) were pre-incubated at 37° C. prior to the addition of a suspension of cryopreserved hepatocytes (final cell density 0.5×10^6 viable cells/mL in Williams E media supplemented with 2 mM L glutamine and 25 mM HEPES) to initiate the reaction. The final incubation volume is 500 μL. The reactions are stopped by transferring aliquots of incubate into acetonitrile at the appropriate time points, in a 1:2 ratio. The termination plates are centrifuged at 3,000 rpm for 20 min at 4° C. to precipitate the protein. Following protein precipitation, the sample supernatants were combined in cassettes of up to 4 compounds, internal standard was added and analysed by LC MS/MS. From a plot of ln peak area ratio (compound peak area/internal standard peak area) against time, the gradient of the line was determined. Subsequently, half-life (t½) and intrinsic clearance (CLint) were calculated using the equations below: Elimination rate constant (k)=(−gradient) Half-life (t½) (min)=0.693/k Intrinsic clearance (i.e. CLint) (μL/min/million cells)=V×0.693/t1/2
where V=Incubation volume (μL)/Number of cells
Verapamil and umbelliferone were included in the assay as controls and if the values for these compounds are not within the specified limits the results were rejected and the experiment repeated.

The nature of data set [6]: PK parameters in mouse (IV and PO). It counts as in vivo. Conditions: for PK parameters (mouse): F: 10 mg/kg IV and 10 mg/kg PO; for clearance / half-life: male, Swiss Albino, plasma, IV arm, 10 mg/kg; for clearance: read-out: PK parameters (mouse): Cl; for half-life: read-out: PK parameters (mouse): t1/2. The procedure: Swiss Albino male mice or Sprague Dawley rats (TCGLS, India) were kept under a 12/12 h light/dark cycle, 22±2° C. temp, 50±20% RH with free access to food and water ad libitum. Mice were selected randomly/based on body weight/age and fasted for 4 h before dosing and until 2 h after dosing. Three mice were used per route of administration. […]
(§4) Blood samples were taken (mice 50 μL, rat 100 μL) at regular timepoints from the saphenous vein (conscious restrained animals) and collected into heparinized capillary tubes and transferred into 0.5 mL microcentrifuge tubes. Samples were processed by centrifugation at 1640 g for 10 min at +4° C. within 30 min of collection and stored at −20° C. until bioanalysis. All samples were mixed with ice-cold acetonitrile containing an internal standard, centrifuged at 4000 rpm for 15 min at 15° C. Supernatant was then half diluted in water and analysed by LCMS/MS analysis to determine analyte peak area/IS peak area (the ratio). Concentration (plasma) of the compounds of the invention was determined by reference to a calibration curve. Pharmacokinetic parameters (Cmax, Tmax, AUC, t1/2, CL, Vd, BA) were calculated using WinNonLin, using non-compartmental analysis (Phoenix, Version 6.3). The pharmacokinetic parameters for compounds shown in Table 2 support that compounds of the invention have pharmacokinetic properties associated with treatment of malaria via the oral route and that compounds have substantially longer half-lives than the reference compound.

Data set [7] in a line: PK parameters in rat (IV and PO). Type of data set: in vivo. To be noted: for PK parameters (rat): F: 1 mg/kg IV and 3 mg/kg PO; for clearance / half-life: Sprague Dawley, plasma, IV arm, 1 mg/kg; for clearance: read-out: PK parameters (rat): Cl; for half-life: read-out: PK parameters (rat): t1/2. As to the method: Swiss Albino male mice or Sprague Dawley rats (TCGLS, India) were kept under a 12/12 h light/dark cycle, 22±2° C. temp, 50±20% RH with free access to food and water ad libitum. Mice were selected randomly/based on body weight/age and fasted for 4 h before dosing and until 2 h after dosing. Three mice were used per route of administration. For IV determination (1 mg/kg, dose volume 5 ml/kg) the dose was administered by injection into the lateral tail vein (rats are anaesthetized using 3% v/v isoflurane: oxygen mixture). For PO determination (3 mg/kg, dose volume 10 ml/kg) the dose was administered by oral gavage in conscious animals.
as §4

`CC(C)Oc1ccc(C2C(C(=O)Nc3ccc(F)c(C#N)c3)c3ccccc3C(=O)N2CC(F)(F)F)cn1` (racemic) [(2), (+, −)-N-(3-cyano-4-fluorophenyl)-3-(6-isopropoxypyridin-3-yl)-1-oxo-2-(2,2,2-trifluoroethyl)-1,2,3,4-tetrahydroisoquinoline-4-carboxamide]: it took 80 nM to reach a half-maximal effect in data set [1] (EC50). The microsomal CLint – broadly, a measure of how fast metabolising enzymes remove a compound, apart from limits set by blood flow – at 1 μM in data set [2] amounted to 13 µL/min/mg.

As for `N#Cc1cc(NC(=O)[C@H]2c3ccccc3C(=O)N(CC(F)(F)F)[C@@H]2c2ccc(C(F)(F)F)nc2)ccc1F` [(3a), (3S,4S)—N-(3-cyano-4-fluorophenyl)-1-oxo-2-(2,2,2-trifluoroethyl)-3-(6-(trifluoromethyl)pyridin-3-yl)-1,2,3,4-tetrahydroisoquinoline-4-carboxamide], the midpoint of the response in data set [1], the EC50, lay at 70 nM. For the same compound, the microsomal CLint at 1 μM in data set [3] was less than 10 µL/min/mg. The microsomal CLint at 1 μM in data set [4] is less than 10 µL/min/mg. In data set [2], this compound displayed a microsomal CLint at 1 μM of 6 µL/min/mg. Moreover, the hepatocyte CLint (in general, a measure of how fast metabolising enzymes remove a compound, apart from limits set by blood flow) at 3 μM in data set [5] is less than 10 µL/min/1e6 cells. Besides, in data set [6], the “PK parameters (mouse): F” value is reported as “F = 95%”, the clearance amounted to 1.67 mL/min/kg and the half-life was determined as 11 h. Moreover, in data set [7], the “PK parameters (rat): F” value was “F = 95%”, the clearance turned out to be 0.667 mL/min/kg and the half-life stood at 11 h.

Regarding `N#Cc1cc(NC(=O)[C@H]2c3ccccc3C(=O)N(CC(F)(F)F)[C@@H]2c2ccc(OCC(F)(F)F)nc2)ccc1F` [(4a), (3S,4S)—N-(3-cyano-4-fluorophenyl)-1-oxo-3-(6-(2,2,2-trifluoroethoxy)pyridin-3-yl)-2-(2,2,2-trifluoroethyl)-1,2,3,4-tetrahydroisoquinoline-4-carboxamide], the EC50 (commonly the concentration needed to bring the measured effect to its halfway point) in data set [1] was found to be 53 nM. In data set [3], this compound displayed a microsomal CLint at 1 μM of less than 10 µL/min/mg. In addition, the microsomal CLint at 1 μM in data set [4] was less than 10 µL/min/mg. This compound also displayed a microsomal CLint at 1 μM in data set [2] of less than 3 µL/min/mg. The compound further came in with a hepatocyte CLint at 3 μM in data set [5] of less than 3 µL/min/1e6 cells. For the same compound, in data set [6], the “PK parameters (mouse): F” value was “F = 56%”, the clearance was 2.67 mL/min/kg and the half-life was determined as 41 h. In addition, in data set [7], the “PK parameters (rat): F” value was “F = 33%”, the clearance was 0.5 mL/min/kg and the half-life stood at 85 h.

For `CC(=O)Nc1ccc([C@@H]2[C@@H](C(=O)Nc3ccc(F)c(C#N)c3)c3ccccc3C(=O)N2CC(F)(F)F)cn1` [(5a), (3S,4S)-3-(6-acetamidopyridin-3-yl)-N-(3-cyano-4-fluorophenyl)-1-oxo-2-(2,2,2-trifluoroethyl)-1,2,3,4-tetrahydroisoquinoline-4-carboxamide], in data set [1], it took 40 nM to reach a half-maximal effect (EC50).

For the compound `N#Cc1ccc([C@@H]2[C@@H](C(=O)Nc3ccc(F)c(C#N)c3)c3ccccc3C(=O)N2CC(F)(F)F)cn1` [(6a), (3S,4S)—N-(3-cyano-4-fluorophenyl)-3-(6-cyanopyridin-3-yl)-1-oxo-2-(2,2,2-trifluoroethyl)-1,2,3,4-tetrahydroisoquinoline-4-carboxamide], the EC50 in data set [1] was 68 nM. The microsomal CLint at 1 μM was less than 10 µL/min/mg in data set [3] and less than 3 µL/min/mg in data set [2]. The compound also had a hepatocyte CLint at 3 μM in data set [5] of less than 3 µL/min/1e6 cells.

Take `N#Cc1cc(NC(=O)[C@H]2c3ccccc3C(=O)N(CC(F)(F)F)[C@@H]2c2ccc(OC(F)F)nc2)ccc1F` [(7a), (3S,4S)—N-(3-cyano-4-fluorophenyl)-3-(6-(difluoromethoxy)pyridin-3-yl)-1-oxo-2-(2,2,2-trifluoroethyl)-1,2,3,4-tetrahydroisoquinoline-4-carboxamide]: the EC50 in data set [1] was determined as 68 nM. This compound also returned a microsomal CLint at 1 μM in data set [3] of less than 10 µL/min/mg. Further, in data set [2], the microsomal CLint at 1 μM was less than 3 µL/min/mg. This compound also came in with a hepatocyte CLint at 3 μM in data set [5] of less than 10 µL/min/1e6 cells. Besides, in data set [6], the “PK parameters (mouse): F” value is on record as “F = 108%”, the clearance was found to be 2.67 mL/min/kg and the half-life was 18 h. For the same compound, in data set [7], the “PK parameters (rat): F” value is listed as “F = 108%”, the clearance is 1.5 mL/min/kg and the half-life turned out to be 38 h.

With `N#Cc1cc(NC(=O)[C@H]2c3ccccc3C(=O)N(CC(F)(F)F)[C@@H]2c2ccc(C(F)F)nc2)ccc1F` [(8a), (3S,4S)—N-(3-cyano-4-fluorophenyl)-3-(6-(difluoromethyl)pyridin-3-yl)-1-oxo-2-(2,2,2-trifluoroethyl)-1,2,3,4-tetrahydroisoquinoline-4-carboxamide], the midpoint of the response in data set [1], the EC50, lay at 59 nM. Further, in data set [3], the microsomal CLint at 1 μM was less than 10 µL/min/mg. For the same compound, in data set [2], the microsomal CLint at 1 μM is less than 3 µL/min/mg. In data set [5], this compound registered a hepatocyte CLint at 3 μM of 4 µL/min/1e6 cells. For the same compound, in data set [6], the “PK parameters (mouse): F” value is given as “F = 37%”, the clearance worked out at 3.33 mL/min/kg and the half-life amounted to 56 h.
